Measured values from patent publication EP0655506B1 (priority 1994, dated 1995).

Assays:
Experiment in all cases: Gel electrophoresis-based rate of incorporation of dideoxynucleotides relative to deoxynucleotides, 1:1 ratio of dNTPs to ddNTPs (Example 6)
[1] = biological target: T1, T7 DNA polymerase (28 amino acid deletion in the exonuclease domain, complexed with thioredoxin), tyrosine at residue 526 (WT) (Escherichia phage T7, UniProt P00581, DEL118-145); type: biochemical, bacteriophage T7; conditions: for D, discrimination factor (ratio of the use of a specific dNTP to the use of the comparable ddNTP at equal concentrations): 100 µM 4dNTPs and 100 µM of one ddNTP, 5 mM MgCl2, 37 °C; for Incorporation Rate Ratios (dN/ddN): stated to be the absolute ratios obtained in Example 6 (1:1 dNTPs to ddNTPs)
T1 construct: made in house; host or cells: strain that produces E. coli thioredoxin, lac promoter
From the text: (§1) The primary application of this test is to determine the absolute ratio of incorporation of a ddNMP to a dNMP for a DNA polymerase that efficiently incorporates dideoxynucleotides, such as T7 DNA polymerase, E. coli DNA polymerase I mutant F762Y or Taq DNA polymerase mutant F667Y. It can also indicate the level of discrimination against ddNTPs of any DNA polymerase; however, for DNA polymerases that discriminate strongly against ddNTPs, such as T7 DNA polymerase mutant Y526F, E. coli DNA polymerase I or Taq DNA polymerase, higher ratios of ddNTP to dNTP are necessary to determine precisely their level of discrimination, which is described in detail in Example 7.
(§2) DNA synthesis reactions are carried out on the ^32P-end labeled 40 mer-M 13 mGP1-2 DNA template complex prepared as described in Example 3. Reaction conditions are used that are optimum for the DNA polymerase being tested with regard to buffer, pH, salts, and temperature of the reaction. A concentration of DNA polymerase is chosen whereby most of the primers are extended in a 10 min reaction and are terminated by the incorporation of a dideoxynucleotide. The reaction mixture contains 100 µM 4dNTPs and 100 µM of one of the four ddNTPs.
(§3) We used this test to compare the ability of six DNA polymerases to incorporate each of the four ddNMPs. The DNA polymerases tested were (1) T7 DNA polymerase with a 28 amino acid deletion in the exonuclease domain and complexed in a one-to-one ratio with thioredoxin (Tabor and Richardson 264 J. Biol. Chem. 6447, 1989) (referred to here as "T7 DNA polymerase"), (2) The large fragment of E. coli DNA polymerase I, commonly called the Klenow fragment (referred to here as "E. coli DNA polymerase I"), (3) Unmodified DNA polymerase from Thermus aquaticus (referred to here as "Taq DNA polymerase"), (4) T7 DNA polymerase as described above in which the tyrosine at residue 526 has been changed to a phenylalanine (referred to here as "T7 DNA polymerase Y526F"), (5) E. coli DNA polymerase I as described above in which the phenylalanine at residue 762 has been changed to a tyrosine (referred to here as "E. coli DNA polymerase I F762Y"), and (6) Taq DNA polymerase as described above in which the phenylalanine at residue 667 has been changed to a tyrosine (referred to here as "Taq DNA polymerase F667Y").
(§4) The reaction mixtures also contained 10 ng of yeast inorganic pyrophosphatase to inhibit pyrophosphorolysis that could otherwise increase the apparent discrimination by the DNA polymerase (Tabor and Richardson 265 j. Biol. Chem. 8322, 1990). The reactions were initiated by the addition of 2 µl of each DNA polymerase, diluted in 20 mM TrisHCl, pH 7.5, 10 mM 2-mercaptoethanol and 0.05% bovine serum albumin to a concentration of approximately 0.025 units/µl. The concentration of each DNA polymerase was sufficient to extend most of the labeled primers by more than 500 nucleotides in the absence of ddNTPs in a 15 min reaction. The reaction mixtures were incubated for 15 min at either 37 °C (T7 DNA polymerase, T7 DNA polymerase Y526F, E. coli DNA polymerase I, and E. coli DNA polymerase F762Y) or 70 °C (Taq DNA polymerase and Taq DNA polymerase F667Y). The reactions were terminated by the addition of 10 µl 90% formamide, 20 mM EDTA, 0.05% bromphenol blue. Each sample was heated at 90°C for 2 min immediately prior to loading 6 µl of each sample onto a gel consisting of 8% polyacrylamide, 0.4% N,N'-methylenebisacrylamide, 7 M urea in 100 mM Trisborate, pH 8.3, 1 mM EDTA. Electrophoresis was at 2000 Volts for 90 min (until the bromphenol blue had just run off the bottom of the gel). After electrophoresis, the gel was dried under vacuum, and autoradiographed. After autoradiography, the distribution of radioactively labeled fragments was determined by Phosphorimager analysis (Molecular Dynamics). […]

Taq DNA polymerase F667Y = biological target: T2, Taq DNA polymerase F667Y (Thermus aquaticus, UniProt P19821, F667Y); type: biochemical; conditions: for D, discrimination factor (ratio of the use of a specific dNTP to the use of the comparable ddNTP at equal concentrations): 100 µM 4dNTPs and 100 µM of one ddNTP, 5 mM MgCl2, 70 °C; for Incorporation Rate Ratios (dN/ddN): absolute ratios obtained in Example 6 (1:1 dNTPs to ddNTPs)
T2 construct: to the gene that produces the full length Taq DNA polymerase; made in house
From the text: as §1, §2, §3, §4

[2] = biological target: T3, E. coli DNA polymerase I (Klenow fragment) F762Y (Escherichia coli, UniProt P00582, F762Y); type: biochemical; conditions: for D, discrimination factor (ratio of the use of a specific dNTP to the use of the comparable ddNTP at equal concentrations): 100 µM 4dNTPs and 100 µM of one ddNTP, 5 mM MgCl2, 37 °C; for Incorporation Rate Ratios (dN/ddN): absolute ratios obtained in Example 6 (1:1 dNTPs to ddNTPs)
T3 construct: The large fragment of E. coli DNA polymerase I, commonly called the Klenow fragment; made in house; T7 RNA polymerase promoter; purified by ion exchange chromatography
From the text: as §1, §2, §3, §4

T3 sequence (P00582 324-928 F762Y): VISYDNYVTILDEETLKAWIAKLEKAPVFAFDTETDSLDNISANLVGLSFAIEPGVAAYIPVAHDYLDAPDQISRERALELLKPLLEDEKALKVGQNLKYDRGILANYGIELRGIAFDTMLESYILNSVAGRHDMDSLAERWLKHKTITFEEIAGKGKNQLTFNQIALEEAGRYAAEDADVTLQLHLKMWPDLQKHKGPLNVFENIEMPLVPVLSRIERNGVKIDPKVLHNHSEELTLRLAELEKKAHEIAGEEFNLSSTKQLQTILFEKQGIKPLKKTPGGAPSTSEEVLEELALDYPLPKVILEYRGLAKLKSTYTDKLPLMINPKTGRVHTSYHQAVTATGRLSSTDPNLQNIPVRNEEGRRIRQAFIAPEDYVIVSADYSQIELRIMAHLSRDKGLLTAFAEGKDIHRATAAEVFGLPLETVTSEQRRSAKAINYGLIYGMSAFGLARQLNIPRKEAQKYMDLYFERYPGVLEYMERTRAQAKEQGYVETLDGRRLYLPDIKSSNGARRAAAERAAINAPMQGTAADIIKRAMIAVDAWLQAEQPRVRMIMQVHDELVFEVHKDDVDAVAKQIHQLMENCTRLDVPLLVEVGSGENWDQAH
T2 sequence (P19821 whole entry F667Y): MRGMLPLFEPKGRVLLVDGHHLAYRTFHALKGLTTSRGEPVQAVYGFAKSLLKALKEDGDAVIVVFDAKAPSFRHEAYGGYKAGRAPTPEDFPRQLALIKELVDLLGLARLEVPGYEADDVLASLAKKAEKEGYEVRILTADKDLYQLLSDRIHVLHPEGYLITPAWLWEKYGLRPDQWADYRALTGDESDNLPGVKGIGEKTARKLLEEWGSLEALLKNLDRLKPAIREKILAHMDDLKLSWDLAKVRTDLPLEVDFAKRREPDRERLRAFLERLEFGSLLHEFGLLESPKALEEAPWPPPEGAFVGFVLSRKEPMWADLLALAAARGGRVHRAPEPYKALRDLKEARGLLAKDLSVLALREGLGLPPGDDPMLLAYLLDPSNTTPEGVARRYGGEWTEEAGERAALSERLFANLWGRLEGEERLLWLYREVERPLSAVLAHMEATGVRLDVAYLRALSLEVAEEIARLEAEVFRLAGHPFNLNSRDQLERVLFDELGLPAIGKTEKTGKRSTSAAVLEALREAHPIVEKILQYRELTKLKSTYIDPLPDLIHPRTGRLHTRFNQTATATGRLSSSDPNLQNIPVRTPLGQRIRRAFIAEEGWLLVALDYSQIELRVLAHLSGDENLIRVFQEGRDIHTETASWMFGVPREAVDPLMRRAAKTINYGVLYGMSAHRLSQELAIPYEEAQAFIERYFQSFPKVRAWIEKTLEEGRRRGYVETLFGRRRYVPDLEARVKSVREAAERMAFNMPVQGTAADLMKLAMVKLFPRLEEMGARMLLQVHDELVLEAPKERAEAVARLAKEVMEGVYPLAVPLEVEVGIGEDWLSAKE
T1 sequence (P00581 other isoform, or with tags, fused parts or gaps DEL118-145): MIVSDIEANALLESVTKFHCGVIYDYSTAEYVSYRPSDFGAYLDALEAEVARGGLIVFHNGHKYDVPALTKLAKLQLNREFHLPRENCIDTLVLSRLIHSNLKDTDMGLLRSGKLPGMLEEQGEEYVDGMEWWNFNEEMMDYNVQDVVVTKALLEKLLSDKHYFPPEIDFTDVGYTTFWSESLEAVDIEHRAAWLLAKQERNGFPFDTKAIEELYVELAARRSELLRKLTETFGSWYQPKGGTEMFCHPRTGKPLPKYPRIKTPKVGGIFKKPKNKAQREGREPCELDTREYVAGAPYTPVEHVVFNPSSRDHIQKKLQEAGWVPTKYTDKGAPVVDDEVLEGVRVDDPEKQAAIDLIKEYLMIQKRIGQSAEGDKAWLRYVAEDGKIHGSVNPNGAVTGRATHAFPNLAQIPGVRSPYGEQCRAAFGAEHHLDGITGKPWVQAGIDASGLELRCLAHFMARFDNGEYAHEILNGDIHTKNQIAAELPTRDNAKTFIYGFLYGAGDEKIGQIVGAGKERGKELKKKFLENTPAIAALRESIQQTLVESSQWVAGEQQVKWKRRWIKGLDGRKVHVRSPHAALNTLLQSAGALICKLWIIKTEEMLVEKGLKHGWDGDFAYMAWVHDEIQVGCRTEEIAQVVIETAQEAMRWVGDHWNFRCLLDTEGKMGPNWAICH
T1 sequence (P0AA25 2-109, stated change not applied, further chain): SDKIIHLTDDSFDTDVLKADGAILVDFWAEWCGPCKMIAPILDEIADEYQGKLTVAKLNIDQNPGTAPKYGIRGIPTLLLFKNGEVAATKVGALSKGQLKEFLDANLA

Row | Structure (SMILES) | D, discrimination factor (ratio of the use of a specific dNTP to the use of the comparable ddNTP at equal concentrations) [1] | Incorporation Rate Ratios (dN/ddN) [1] | D, discrimination factor (ratio of the use of a specific dNTP to the use of the comparable ddNTP at equal concentrations) (Taq DNA polymerase F667Y) | Incorporation Rate Ratios (dN/ddN) (Taq DNA polymerase F667Y) | D, discrimination factor (ratio of the use of a specific dNTP to the use of the comparable ddNTP at equal concentrations) [2] | Incorporation Rate Ratios (dN/ddN) [2]
1 | Nc1ncnc2c1ncn2[C@H]1CC[C@@H](COP(=O)(O)OP(=O)(O)OP(=O)(O)O)O1 [ddATP] | 2.3 | 3.3 | 0.59 | 0.59 | 0.72 | 0.72
2 | Nc1ccn([C@H]2CC[C@@H](COP(=O)(O)OP(=O)(O)OP(=O)(O)O)O2)c(=O)n1 [ddCTP] | 2.7 | 3.7 | 0.32 | 0.32 | 0.75 | 0.75
3 | Nc1nc2c(ncn2[C@H]2CC[C@@H](COP(=O)(O)OP(=O)(O)OP(=O)(O)O)O2)c(=O)[nH]1 [ddGTP] | 2.2 | 3.2 | 0.45 | 0.45 | 0.56 | 0.56
4 | Cc1cn([C@H]2CC[C@@H](COP(=O)(O)OP(=O)(O)OP(=O)(O)O)O2)c(=O)[nH]c1=O [ddTTP] | 1.8 | 2.8 | 0.56 | 0.56 | 0.54 | 0.54
